From patent publication US20260356819A1, “OXOISOINDOLINYL-SUBSTITUTED […] DERIVATIVE AND USE THEREOF” (GLUETACS THERAPEUTICS (SHANGHAI) CO., LTD., priority 2023, published 2026)

Assays:
Format in all cases: cell-based
Conditions in all cases: compounds at 50 nM and 500 nM
CK1α = biological target: T1, CK1α (Homo sapiens, UniProt P48729+Q96SW2); experiment: Western blot degradation of CK1α in hPBMCs (24 h)
T1 construct: The supernatant was aspirated as the extracted total cell protein; endogenous in cells; host or cells: human peripheral blood mononuclear cells (hPBMCs)
Outline: (§1)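 Degradation in primary human PBMCs after 24 h compound exposure at 50 and 500 nM. Western blot band intensities, normalised to an internal control protein, expressed as % protein remaining relative to DMSO.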

IKZF1 = biological target: T2, IKZF1 (Homo sapiens, UniProt Q13422+Q96SW2); experiment: Western blot degradation of IKZF1 in hPBMCs (24 h)
T2 construct: The supernatant was aspirated as the extracted total cell protein; endogenous in cells; host or cells: human peripheral blood mononuclear cells (hPBMCs)
Outline: as §1

WEE1 = biological target: T3, WEE1 (Homo sapiens, UniProt P30291+Q96SW2); experiment: Western blot degradation of WEE1 in hPBMCs (24 h)
T3 construct: The supernatant was aspirated as the extracted total cell protein; endogenous in cells; host or cells: human peripheral blood mononuclear cells (hPBMCs)
Outline: as §1

IKZF3 = biological target: T4, IKZF3 (Homo sapiens, UniProt Q96SW2+Q9UKT9); experiment: Western blot degradation of IKZF3 in hPBMCs (24 h)
T4 construct: The supernatant was aspirated as the extracted total cell protein; endogenous in cells; host or cells: human peripheral blood mononuclear cells (hPBMCs)
Outline: as §1

IKZF2 = biological target: T5, IKZF2 (Homo sapiens, UniProt Q96SW2+Q9UKS7); experiment: Western blot degradation of IKZF2 in hPBMCs (24 h)
T5 construct: The supernatant was aspirated as the extracted total cell protein; endogenous in cells; host or cells: human peripheral blood mononuclear cells (hPBMCs)
Outline: as §1

GSPT1 = biological target: T6, GSPT1 (Homo sapiens, UniProt P15170+Q96SW2); experiment: Western blot degradation of GSPT1 in hPBMCs (24 h)
T6 construct: The supernatant was aspirated as the extracted total cell protein; endogenous in cells; host or cells: human peripheral blood mononuclear cells (hPBMCs)
Outline: as §1

T1 sequence (P48729 whole entry): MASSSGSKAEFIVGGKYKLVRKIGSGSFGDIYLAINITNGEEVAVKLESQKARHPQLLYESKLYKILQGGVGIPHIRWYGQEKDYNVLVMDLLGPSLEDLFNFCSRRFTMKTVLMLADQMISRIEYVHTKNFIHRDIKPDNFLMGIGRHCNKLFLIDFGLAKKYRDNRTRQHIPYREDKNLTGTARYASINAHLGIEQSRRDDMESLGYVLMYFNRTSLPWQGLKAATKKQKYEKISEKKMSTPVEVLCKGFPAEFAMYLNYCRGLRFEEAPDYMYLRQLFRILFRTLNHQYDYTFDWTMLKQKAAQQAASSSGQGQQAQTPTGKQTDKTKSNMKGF
T1 sequence (Q96SW2 whole entry): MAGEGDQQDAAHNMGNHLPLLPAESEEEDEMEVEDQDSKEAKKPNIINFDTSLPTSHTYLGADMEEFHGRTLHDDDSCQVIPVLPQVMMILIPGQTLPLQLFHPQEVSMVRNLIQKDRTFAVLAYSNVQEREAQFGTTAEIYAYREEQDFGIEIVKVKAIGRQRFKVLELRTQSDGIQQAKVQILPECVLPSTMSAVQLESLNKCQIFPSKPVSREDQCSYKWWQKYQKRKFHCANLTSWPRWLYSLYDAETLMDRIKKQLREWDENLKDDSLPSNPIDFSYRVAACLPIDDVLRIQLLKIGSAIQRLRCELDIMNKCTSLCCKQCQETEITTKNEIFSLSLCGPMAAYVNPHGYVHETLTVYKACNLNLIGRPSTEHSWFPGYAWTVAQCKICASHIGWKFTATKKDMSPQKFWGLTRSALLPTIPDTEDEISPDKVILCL
T1 sequence (Q16531 whole entry partner): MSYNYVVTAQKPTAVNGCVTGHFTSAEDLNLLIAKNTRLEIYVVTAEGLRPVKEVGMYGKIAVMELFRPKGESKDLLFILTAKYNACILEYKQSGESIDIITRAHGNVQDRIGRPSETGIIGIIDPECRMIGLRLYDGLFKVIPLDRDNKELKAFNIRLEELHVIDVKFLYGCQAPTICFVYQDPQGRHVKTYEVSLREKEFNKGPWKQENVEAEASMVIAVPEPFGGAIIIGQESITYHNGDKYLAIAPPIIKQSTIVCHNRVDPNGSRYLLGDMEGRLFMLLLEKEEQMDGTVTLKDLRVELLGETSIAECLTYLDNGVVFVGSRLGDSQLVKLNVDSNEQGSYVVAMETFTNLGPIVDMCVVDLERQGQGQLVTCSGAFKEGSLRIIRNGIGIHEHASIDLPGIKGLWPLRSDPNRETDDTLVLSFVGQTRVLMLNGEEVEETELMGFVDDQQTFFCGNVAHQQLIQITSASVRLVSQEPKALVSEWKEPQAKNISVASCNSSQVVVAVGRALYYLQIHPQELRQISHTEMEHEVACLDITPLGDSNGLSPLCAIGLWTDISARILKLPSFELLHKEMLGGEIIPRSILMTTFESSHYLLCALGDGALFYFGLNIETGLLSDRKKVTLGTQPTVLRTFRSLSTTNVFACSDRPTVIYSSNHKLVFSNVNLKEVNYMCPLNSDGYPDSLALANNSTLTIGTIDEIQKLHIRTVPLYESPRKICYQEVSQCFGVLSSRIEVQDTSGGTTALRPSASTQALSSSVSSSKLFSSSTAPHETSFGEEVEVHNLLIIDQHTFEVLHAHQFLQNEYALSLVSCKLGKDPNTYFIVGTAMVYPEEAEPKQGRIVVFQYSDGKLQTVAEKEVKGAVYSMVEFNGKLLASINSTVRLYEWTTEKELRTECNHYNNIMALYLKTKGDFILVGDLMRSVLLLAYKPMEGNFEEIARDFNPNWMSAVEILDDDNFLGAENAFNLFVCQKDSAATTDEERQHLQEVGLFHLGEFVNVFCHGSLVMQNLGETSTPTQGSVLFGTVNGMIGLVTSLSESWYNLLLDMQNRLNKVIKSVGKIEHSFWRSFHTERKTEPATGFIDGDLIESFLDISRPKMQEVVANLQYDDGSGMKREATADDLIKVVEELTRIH
T5 sequence (Q9UKS7 whole entry): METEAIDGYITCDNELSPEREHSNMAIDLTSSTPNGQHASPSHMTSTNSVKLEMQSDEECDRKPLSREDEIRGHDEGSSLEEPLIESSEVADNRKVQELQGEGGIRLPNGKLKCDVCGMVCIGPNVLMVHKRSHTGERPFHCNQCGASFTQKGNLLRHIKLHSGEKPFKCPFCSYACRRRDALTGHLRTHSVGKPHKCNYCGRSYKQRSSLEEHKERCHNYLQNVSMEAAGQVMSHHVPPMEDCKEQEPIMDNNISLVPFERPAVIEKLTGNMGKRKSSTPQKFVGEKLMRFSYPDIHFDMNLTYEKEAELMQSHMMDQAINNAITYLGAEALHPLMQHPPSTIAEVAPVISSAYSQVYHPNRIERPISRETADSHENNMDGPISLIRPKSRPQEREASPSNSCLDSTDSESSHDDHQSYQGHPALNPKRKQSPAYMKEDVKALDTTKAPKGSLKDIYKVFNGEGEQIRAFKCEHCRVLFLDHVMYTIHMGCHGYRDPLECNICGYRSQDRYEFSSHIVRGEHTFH
T5 sequence (Q96SW2 whole entry): as the sequence (Q96SW2 whole entry) above
T5 sequence (Q16531 whole entry partner): as the sequence (Q16531 whole entry partner) above
T4 sequence (Q9UKT9 whole entry): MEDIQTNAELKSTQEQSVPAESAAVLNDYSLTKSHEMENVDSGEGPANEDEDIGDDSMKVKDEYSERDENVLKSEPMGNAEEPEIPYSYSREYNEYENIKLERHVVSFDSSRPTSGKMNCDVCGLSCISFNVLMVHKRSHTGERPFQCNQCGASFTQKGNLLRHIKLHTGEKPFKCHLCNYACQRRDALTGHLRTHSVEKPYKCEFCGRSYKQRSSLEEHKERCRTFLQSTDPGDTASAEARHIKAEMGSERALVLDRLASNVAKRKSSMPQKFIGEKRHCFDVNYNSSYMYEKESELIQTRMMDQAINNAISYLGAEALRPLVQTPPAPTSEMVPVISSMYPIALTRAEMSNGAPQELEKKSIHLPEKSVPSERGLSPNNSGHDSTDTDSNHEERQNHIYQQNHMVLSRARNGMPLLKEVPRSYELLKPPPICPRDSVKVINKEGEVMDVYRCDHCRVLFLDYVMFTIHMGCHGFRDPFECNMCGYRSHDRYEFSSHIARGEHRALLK
T4 sequence (Q96SW2 whole entry): as the sequence (Q96SW2 whole entry) above
T4 sequence (Q16531 whole entry partner): as the sequence (Q16531 whole entry partner) above
T2 sequence (Q13422 whole entry): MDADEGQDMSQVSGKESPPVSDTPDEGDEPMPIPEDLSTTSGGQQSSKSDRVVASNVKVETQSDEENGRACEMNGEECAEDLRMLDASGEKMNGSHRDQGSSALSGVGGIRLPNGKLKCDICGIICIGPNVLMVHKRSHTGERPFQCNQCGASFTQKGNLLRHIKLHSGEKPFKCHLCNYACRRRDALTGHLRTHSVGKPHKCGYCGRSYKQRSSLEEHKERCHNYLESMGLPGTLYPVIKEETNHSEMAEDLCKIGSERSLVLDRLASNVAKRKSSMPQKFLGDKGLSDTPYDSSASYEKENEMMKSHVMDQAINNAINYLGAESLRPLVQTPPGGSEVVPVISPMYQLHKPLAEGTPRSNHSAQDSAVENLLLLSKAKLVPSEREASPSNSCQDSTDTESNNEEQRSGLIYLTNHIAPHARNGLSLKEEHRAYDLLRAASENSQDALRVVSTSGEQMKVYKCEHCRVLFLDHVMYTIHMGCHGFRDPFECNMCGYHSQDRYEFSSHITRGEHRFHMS
T2 sequence (Q96SW2 whole entry): as the sequence (Q96SW2 whole entry) above
T2 sequence (Q16531 whole entry partner): as the sequence (Q16531 whole entry partner) above
T3 sequence (P30291 whole entry): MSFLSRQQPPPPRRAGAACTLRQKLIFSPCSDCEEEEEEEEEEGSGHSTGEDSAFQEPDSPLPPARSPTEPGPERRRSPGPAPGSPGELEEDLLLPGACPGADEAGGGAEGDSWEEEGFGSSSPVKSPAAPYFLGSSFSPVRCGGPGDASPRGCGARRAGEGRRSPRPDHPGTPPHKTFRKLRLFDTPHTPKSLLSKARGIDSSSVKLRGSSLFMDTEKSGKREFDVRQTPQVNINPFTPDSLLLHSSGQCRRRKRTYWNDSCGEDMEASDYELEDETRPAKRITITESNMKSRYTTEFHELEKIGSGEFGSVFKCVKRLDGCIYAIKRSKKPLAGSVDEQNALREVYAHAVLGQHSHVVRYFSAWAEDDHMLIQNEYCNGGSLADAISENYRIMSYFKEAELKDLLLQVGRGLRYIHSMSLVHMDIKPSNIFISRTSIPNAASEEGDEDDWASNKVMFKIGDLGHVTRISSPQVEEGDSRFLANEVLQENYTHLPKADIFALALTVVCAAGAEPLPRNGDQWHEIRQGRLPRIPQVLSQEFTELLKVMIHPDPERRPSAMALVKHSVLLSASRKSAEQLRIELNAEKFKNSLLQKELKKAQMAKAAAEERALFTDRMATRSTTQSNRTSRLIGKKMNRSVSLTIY
T3 sequence (Q96SW2 whole entry): as the sequence (Q96SW2 whole entry) above
T3 sequence (Q16531 whole entry partner): as the sequence (Q16531 whole entry partner) above

Cc1csc2ncnc(N3CCN(Cc4ccc5c(c4)C(=O)N(N4CCC(=O)NC4=O)C5=O)CC3)c12 [GT-08091, 2-(2,4-dioxotetrahydropyrimidin-1(2H)-yl)-5-((4-(5-methylthieno[2,3-d]pyrimidin-4-yl)piperazin-1-yl)methyl)isoindoline-1,3-dione] was tested, and the “CK1α substrate protein remaining %” value (CK1α) was “A (0% ≤ substrate protein remaining % ≤80%)”, the “IKZF1 substrate protein remaining %” value (IKZF1) was “B (80%< substrate protein remaining % ≤100%)” and the “WEE1 substrate protein remaining %” value (WEE1) was “A (0% ≤ substrate protein remaining % ≤80%)”. The “IKZF3 substrate protein remaining %” value (IKZF3) was “B (80%< substrate protein remaining % ≤100%)”, the “IKZF2 substrate protein remaining %” value (IKZF2) was “B (80%< substrate protein remaining % ≤100%)” and the “GSPT1 substrate protein remaining %” value (GSPT1) was “A (0% ≤ substrate protein remaining % ≤80%)”.

For O=C1CCN(N2C(=O)c3ccc(CN4CCN(c5nccc(F)c5F)CC4)cc3C2=O)C(=O)N1 [GT-07162, 5-((4-(3,4-difluoropyridin-2-yl)piperazin-1-yl)methyl)-2-(2,4-dioxotetrahydropyrimidin-1(2H)-yl)isoindoline-1,3-dione], the “CK1α substrate protein remaining %” value (CK1α) was “A (0% ≤ substrate protein remaining % ≤80%)”, the “IKZF1 substrate protein remaining %” value (IKZF1) was “B (80%< substrate protein remaining % ≤100%)” and the “WEE1 substrate protein remaining %” value (WEE1) was “B (80%< substrate protein remaining % ≤100%)”. The “IKZF3 substrate protein remaining %” value (IKZF3) was “B (80%< substrate protein remaining % ≤100%)”, the “IKZF2 substrate protein remaining %” value (IKZF2) was “A (0% ≤ substrate protein remaining % ≤80%)” and the “GSPT1 substrate protein remaining %” value (GSPT1) was “A (0% ≤ substrate protein remaining % ≤80%)”.

In the case of O=C1CCN(N2Cc3cc(CN4CCC(c5ccnc6cc(F)ccc56)CC4)ccc3C2=O)C(=O)N1 [GT-07645, 1-(5-((4-(7-fluoroquinolin-4-yl)piperidin-1-yl)methyl)-1-oxoisoindolin-2-yl)dihydropyrimidine-2,4(1H,3H)-dione], the “CK1α substrate protein remaining %” value (CK1α) is reported as “B (80%< substrate protein remaining % ≤100%)”, the “IKZF1 substrate protein remaining %” value (IKZF1) is reported as “A (0% ≤ substrate protein remaining % ≤80%)” and the “WEE1 substrate protein remaining %” value (WEE1) is reported as “B (80%< substrate protein remaining % ≤100%)”. The “IKZF3 substrate protein remaining %” value (IKZF3) was “B (80%< substrate protein remaining % ≤100%)”, the “IKZF2 substrate protein remaining %” value (IKZF2) was “B (80%< substrate protein remaining % ≤100%)” and the “GSPT1 substrate protein remaining %” value (GSPT1) was “A (0% ≤ substrate protein remaining % ≤80%)”.

With Cc1nc(N2CCN(Cc3ccc4c(c3)CN(N3CCC(=O)NC3=O)C4=O)CC2)c2c3c(sc2n1)CCC3 [GT-08080, 1-(5-((4-(2-methyl-6,7-dihydro-5H-cyclopenta[4,5]thieno[2,3-d]pyrimidin-4-yl)piperazin-1-yl)methyl)-1-oxoisoindolin-2-yl)dihydropyrimidine-2,4(1H,3H)-dione] the “CK1α substrate protein remaining %” value (CK1α) was “A (0% ≤ substrate protein remaining % ≤80%)”, the “IKZF1 substrate protein remaining %” value (IKZF1) was “B (80%< substrate protein remaining % ≤100%)” and the “WEE1 substrate protein remaining %” value (WEE1) was “A (0% ≤ substrate protein remaining % ≤80%)”. For the same compound, the “IKZF3 substrate protein remaining %” value (IKZF3) was “B (80%< substrate protein remaining % ≤100%)”, the “IKZF2 substrate protein remaining %” value (IKZF2) was “B (80%< substrate protein remaining % ≤100%)” and the “GSPT1 substrate protein remaining %” value (GSPT1) was “A (0% ≤ substrate protein remaining % ≤80%)”.

For O=C1CCN(N2Cc3cc(CN4C5CC4CN(c4cccc(Cl)c4Cl)C5)ccc3C2=O)C(=O)N1 [GT-05162, 1-(5-((3-(2,3-dichlorophenyl)-3,6-diazabicyclo[3.1.1]heptan-6-yl)methyl)-1-oxoisoindolin-2-yl)dihydropyrimidine-2,4(1H,3H)-dione], the “CK1α substrate protein remaining %” value (CK1α) was “B (80%< substrate protein remaining % ≤100%)”, the “IKZF1 substrate protein remaining %” value (IKZF1) was “B (80%< substrate protein remaining % ≤100%)” and the “WEE1 substrate protein remaining %” value (WEE1) was “B (80%< substrate protein remaining % ≤100%)”. For the same compound, the “IKZF3 substrate protein remaining %” value (IKZF3) was “A (0% ≤ substrate protein remaining % ≤80%)”, the “IKZF2 substrate protein remaining %” value (IKZF2) was “B (80%< substrate protein remaining % ≤100%)” and the “GSPT1 substrate protein remaining %” value (GSPT1) was “A (0% ≤ substrate protein remaining % ≤80%)”.

With Cc1ccccc1N1CCN(Cc2ccc3c(c2)CN(N2CCC(=O)NC2=O)C3=O)CC1 [GT-06769, 1-(1-oxo-5-((4-(o-tolyl)piperazin-1-yl)methyl)isoindolin-2-yl)dihydropyrimidine-2,4(1H,3H)-dione] the “CK1α substrate protein remaining %” value (CK1α) was “A (0% ≤ substrate protein remaining % ≤80%)”, the “IKZF1 substrate protein remaining %” value (IKZF1) was “B (80%< substrate protein remaining % ≤100%)” and the “WEE1 substrate protein remaining %” value (WEE1) was “A (0% ≤ substrate protein remaining % ≤80%)”. The “IKZF3 substrate protein remaining %” value (IKZF3) was “A (0% ≤ substrate protein remaining % ≤80%)”, the “IKZF2 substrate protein remaining %” value (IKZF2) was “A (0% ≤ substrate protein remaining % ≤80%)” and the “GSPT1 substrate protein remaining %” value (GSPT1) was “A (0% ≤ substrate protein remaining % ≤80%)”.

O=C1CCN(N2Cc3cc(CN4CCN(c5c(Cl)cncc5Cl)CC4)ccc3C2=O)C(=O)N1 [GT-07032, 1-(5-((4-(3,5-dichloropyridin-4-yl)piperazin-1-yl)methyl)-1-oxoisoindolin-2-yl)dihydropyrimidine-2,4(1H,3H)-dione] was tested, and the “CK1α substrate protein remaining %” value (CK1α) was “B (80%< substrate protein remaining % ≤100%)”, the “IKZF1 substrate protein remaining %” value (IKZF1) was “B (80%< substrate protein remaining % ≤100%)” and the “WEE1 substrate protein remaining %” value (WEE1) was “B (80%< substrate protein remaining % ≤100%)”. For the same compound, the “IKZF3 substrate protein remaining %” value (IKZF3) was “B (80%< substrate protein remaining % ≤100%)”, the “IKZF2 substrate protein remaining %” value (IKZF2) was “B (80%< substrate protein remaining % ≤100%)” and the “GSPT1 substrate protein remaining %” value (GSPT1) was “A (0% ≤ substrate protein remaining % ≤80%)”.

O=C1CCN(N2C(=O)c3ccc(CN4CC5CCC(C4)N5c4cccc(Cl)c4Cl)cc3C2=O)C(=O)N1 [GT-07437, 5-((8-(2,3-dichlorophenyl)-3,8-diazabicyclo[3.2.1]octan-3-yl)methyl)-2-(2,4-dioxotetrahydropyrimidin-1(2H)-yl)isoindoline-1,3-dione] was tested, and the “CK1α substrate protein remaining %” value (CK1α) was “A (0% ≤ substrate protein remaining % ≤80%)”, the “IKZF1 substrate protein remaining %” value (IKZF1) was “B (80%< substrate protein remaining % ≤100%)” and the “WEE1 substrate protein remaining %” value (WEE1) was “A (0% ≤ substrate protein remaining % ≤80%)”. For the same compound, the “IKZF3 substrate protein remaining %” value (IKZF3) was “B (80%< substrate protein remaining % ≤100%)”, the “IKZF2 substrate protein remaining %” value (IKZF2) was “B (80%< substrate protein remaining % ≤100%)” and the “GSPT1 substrate protein remaining %” value (GSPT1) was “A (0% ≤ substrate protein remaining % ≤80%)”.

O=C1CCN(N2Cc3cc(CN4CCc5sccc5C4)ccc3C2=O)C(=O)N1 [GT-07720, 1-(5-((6,7-dihydrothieno[3,2-c]pyridin-5 (4H)-yl)methyl)-1-oxoisoindolin-2-yl)dihydropyrimidine-2,4(1H,3H)-dione] was tested, and the “CK1α substrate protein remaining %” value (CK1α) was “A (0% ≤ substrate protein remaining % ≤80%)”, the “IKZF1 substrate protein remaining %” value (IKZF1) was “A (0% ≤ substrate protein remaining % ≤80%)” and the “WEE1 substrate protein remaining %” value (WEE1) was “A (0% ≤ substrate protein remaining % ≤80%)”. For the same compound, the “IKZF3 substrate protein remaining %” value (IKZF3) was “A (0% ≤ substrate protein remaining % ≤80%)”, the “IKZF2 substrate protein remaining %” value (IKZF2) was “A (0% ≤ substrate protein remaining % ≤80%)” and the “GSPT1 substrate protein remaining %” value (GSPT1) was “A (0% ≤ substrate protein remaining % ≤80%)”.

With O=C1CCN(N2Cc3cc(CN4CC5CCC4CN5c4cccc(Cl)c4Cl)ccc3C2=O)C(=O)N1 (stereo not drawn) [GT-07428, 1-(5-((5-(2,3-dichlorophenyl)-2,5-diazabicyclo[2.2.2]octan-2-yl)methyl)-1-oxoisoindolin-2-yl)dihydropyrimidine-2,4(1H,3H)-dione] the “CK1α substrate protein remaining %” value (CK1α) was “A (0% ≤ substrate protein remaining % ≤80%)”, the “IKZF1 substrate protein remaining %” value (IKZF1) was “A (0% ≤ substrate protein remaining % ≤80%)” and the “WEE1 substrate protein remaining %” value (WEE1) was “B (80%< substrate protein remaining % ≤100%)”. For the same compound, the “IKZF3 substrate protein remaining %” value (IKZF3) was “B (80%< substrate protein remaining % ≤100%)”, the “IKZF2 substrate protein remaining %” value (IKZF2) was “B (80%< substrate protein remaining % ≤100%)” and the “GSPT1 substrate protein remaining %” value (GSPT1) was “A (0% ≤ substrate protein remaining % ≤80%)”.

For Cc1ccc(C2=CCN(Cc3ccc4c(c3)C(=O)N(N3CCC(=O)NC3=O)C4=O)CC2)s1 [GT-05310, 2-(2,4-dioxotetrahydropyrimidin-1(2H)-yl)-5-((4-(5-methylthiophen-2-yl)-3,6-dihydropyridin-1(2H)-yl)methyl)isoindoline-1,3-dione], the “CK1α substrate protein remaining %” value (CK1α) was “B (80%< substrate protein remaining % ≤100%)”, the “IKZF1 substrate protein remaining %” value (IKZF1) was “B (80%< substrate protein remaining % ≤100%)” and the “WEE1 substrate protein remaining %” value (WEE1) was “B (80%< substrate protein remaining % ≤100%)”. For the same compound, the “IKZF3 substrate protein remaining %” value (IKZF3) was “B (80%< substrate protein remaining % ≤100%)”, the “IKZF2 substrate protein remaining %” value (IKZF2) was “B (80%< substrate protein remaining % ≤100%)” and the “GSPT1 substrate protein remaining %” value (GSPT1) was “A (0% ≤ substrate protein remaining % ≤80%)”.
